According to BindingDB's records for PubMed 3011801 (University of Oulu, 1986):

Molecular target: T1, Prolyl 4-hydroxylase subunit alpha-1 (Gallus gallus, UniProt P16924)
T1 sequence (P16924 whole entry): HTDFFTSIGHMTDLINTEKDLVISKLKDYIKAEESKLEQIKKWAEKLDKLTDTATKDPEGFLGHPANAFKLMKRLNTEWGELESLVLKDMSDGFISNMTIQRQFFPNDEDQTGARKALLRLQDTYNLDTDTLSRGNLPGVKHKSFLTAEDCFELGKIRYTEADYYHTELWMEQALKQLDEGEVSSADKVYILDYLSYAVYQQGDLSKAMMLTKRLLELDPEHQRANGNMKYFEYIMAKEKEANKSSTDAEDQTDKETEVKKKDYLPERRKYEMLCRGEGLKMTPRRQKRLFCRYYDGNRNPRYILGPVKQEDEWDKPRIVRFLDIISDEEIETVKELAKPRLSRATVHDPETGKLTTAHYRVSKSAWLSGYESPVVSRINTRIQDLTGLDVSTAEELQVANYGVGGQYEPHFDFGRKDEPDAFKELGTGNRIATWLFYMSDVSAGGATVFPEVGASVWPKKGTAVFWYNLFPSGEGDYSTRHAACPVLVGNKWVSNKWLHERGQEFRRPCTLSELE
Assay: Inhibition Assay
Text: Inhibition assay using procollagen-prolin, 2-oxoglutarate 4-dioxygenase.

Ki | Structure (SMILES)
9 µM | O=C(O)Cc1ccc(O)c(O)c1 [SMR000326727]
5 µM | O=C(O)c1ccc(O)c(O)c1 [Protocatechuic acid (M1)]
530 µM | O=C(O)c1ccc(O)cc1O [beta-Resorcylic acid]
1400 µM | O=C(O)c1cc(O)ccc1O [2,5-Dihydroxybenzoate, VI]
9 µM | O=C(O)C(O)c1ccc(O)c(O)c1 (stereo unspecified) [3,4-Dihydroxymandelate, XVI]
1100 µM | O=C(O)c1c(O)cccc1O [2,6-Dihydroxybenzoate, VII]
> 20000 µM | O=C(O)c1cccc(O)c1
3200 µM | O=C(O)c1ccc(O)cc1 [4-Hydroxybenzoate, III]
18 µM | O=C(O)/C=C/c1ccc(O)c(O)c1 [3,4-Dihydroxycinnamate, XVII]
9000 µM | O=C(O)c1cc(O)cc(O)c1 [3,5-dihydroxybenzoic acid]
30 µM | Oc1cccc(O)c1O
13 µM | O=C(O)CCc1ccc(O)c(O)c1 [3-(3,4-dihydroxyphenyl)propanoic acid]
70 µM | O=C(O)c1cccc(O)c1O [2,3-Dihydroxybenzoate, IV]
> 20000 µM | O=C(O)[C@H](O)c1ccccc1 [(+)-Mandelate, XXI]
> 20000 µM | O=C1OC(C(O)CO)C(O)C1O (stereo unspecified) [5-(1,2-Dihydroxy-ethyl)-3,4-dihydroxy-dihydro-furan-2-one]
10200 µM | Oc1cccc(O)c1
14000 µM | Oc1ccc(O)cc1

Structure (SMILES) | Ki
O=C(O)c1ccccc1O [salicylic acid] | 2300 µM
O=C(O)c1cc(O)c(O)c(O)c1 [Gallic Acid, F] | 30 µM
O=C(O)Cc1ccccc1 [Phenylacetate, XIX] | > 20000 µM
Oc1ccccc1O [1,2-Dihydroxybenzene, XI] | 25 µM
